From patent US20230233569A1 (Revolution Medicines, Inc., priority 2020, published 2023)

Experiments:
KRAS G12V = KRAS G12V (Homo sapiens, UniProt P01116+P62937, G12V); test: Disruption of BRAF RBD interaction with Ras (FRET / MOA assay, with Cyclophilin A); type: biochemical; settings: KRAS G12V; read-out: KRAS G12V FRET data IC50
In short: (§1)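 IC50 values reflect loss of K-Ras binding to BRAF RBD, read as a lowered TR-FRET ratio compared with DMSO, driven by compound-mediated K-Ras:Cyclophilin A complex formation. Compound top dose 30 μM final, 3-fold steps, 3 h incubation at 25 °C before a 1.5 h antibody step.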

NRAS G12C = NRAS G12C (Homo sapiens, UniProt P01111+P62937, G12C); test: as above; type: biochemical; settings: NRAS G12C; read-out: NRAS G12C FRET data IC50
KRAS G12S = KRAS G12S (Homo sapiens, UniProt P01116+P62937, G12S); test: as above; type: biochemical; settings: read-out: KRAS G12S FRET data, IC50
In short: as §1

KRAS G13C = KRAS G13C (Homo sapiens, UniProt P01116+P62937, G13C); test: as above; type: biochemical; settings: read-out: KRAS G13C FRET data, IC50
In short: as §1

KRAS WT = KRAS WT (Homo sapiens, UniProt P01116+P62937); test: as above; type: biochemical; settings: KRAS WT; read-out: KRAS WT FRET data IC50
In short: as §1

KRAS G12C = KRAS G12C (Homo sapiens, UniProt P01116+P62937, G12C); test: as above; type: biochemical; settings: read-out: KRAS G12C FRET data, IC50
In short: as §1

KRAS G13D = KRAS G13D (Homo sapiens, UniProt P01116+P62937, G13D); test: as above; type: biochemical; settings: KRAS G13D; read-out: KRAS G13D FRET data IC50
In short: as §1

KRAS G12D = KRAS G12D (Homo sapiens, UniProt P01116+P62937, G12D); test: as above; type: biochemical; settings: read-out: KRAS G12D FRET data, IC50
In short: as §1

KRAS Q61H = KRAS Q61H (Homo sapiens, UniProt P01116+P62937, Q61H); test: as above; type: biochemical; settings: KRAS Q61H; read-out: KRAS Q61H FRET data IC50
In short: (§2)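 TR-FRET in 25 mM HEPES pH 7.3, 100 mM NaCl, 5 mM MgCl2, 0.1% BSA: 25 μM Cyclophilin A, 12.5 nM His6-Ras-GMPPNP, 50 nM GST-BRAF RBD with compound (10-point 3-fold series from 30 μM), 3 h at 25° C. Anti-His Eu/anti-GST APC added, 1.5 h more; IC50 from decreased FRET ratio versus DMSO.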

NRAS WT = NRAS WT (Homo sapiens, UniProt P01111+P62937); test: as above; type: biochemical; settings: NRAS WT; read-out: NRAS WT FRET data IC50
In short: as §2

NRAS Q61K = NRAS Q61K (Homo sapiens, UniProt P01111+P62937, Q61K); test: as above; type: biochemical; settings: NRAS Q61K; read-out: NRAS Q61K FRET data IC50
In short: as §2

NRAS Q61R = NRAS Q61R (Homo sapiens, UniProt P01111+P62937, Q61R); test: as above; type: biochemical; settings: NRAS Q61R; read-out: NRAS Q61R FRET data IC50
In short: as §2

Capan-1 (K-Ras G12V) = test: CellTiter-Glo cell viability assay, 5-day treatment; type: cell-based; settings: Homo sapiens, CAPAN-1, 120 h, 5-day treatment; read-out: Capan-1 Cell Viability assay data (K-Ras G12V, IC50)
In short: (§3)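 Five-day compound treatment of plated cells; luminescent read after ~30 min at RT. Percent-of-DMSO data fit to a four-parameter logistic model.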

NCI-H358 (K-Ras G12C) = test: as above; type: cell-based; settings: Homo sapiens, NCI-H358, 120 h, 5-day treatment; read-out: H358 Cell Viability assay data (K-Ras G12C, IC50)
In short: as §3

Chain of KRAS G12D (P01116 1-169 isoform P01116-2 G12D limits assumed): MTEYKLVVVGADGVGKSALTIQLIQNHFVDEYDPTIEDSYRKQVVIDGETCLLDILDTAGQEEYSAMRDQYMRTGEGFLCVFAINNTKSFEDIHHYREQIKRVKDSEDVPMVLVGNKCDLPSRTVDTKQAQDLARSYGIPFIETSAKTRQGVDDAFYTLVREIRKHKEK
Chain of KRAS G12D (P62937 whole entry): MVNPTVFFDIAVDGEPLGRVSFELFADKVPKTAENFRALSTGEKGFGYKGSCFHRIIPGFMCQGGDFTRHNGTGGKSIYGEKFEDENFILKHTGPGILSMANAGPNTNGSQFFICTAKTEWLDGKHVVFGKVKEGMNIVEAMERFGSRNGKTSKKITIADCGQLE
Chain of KRAS Q61H (P01116 1-169 isoform P01116-2 Q61H limits assumed): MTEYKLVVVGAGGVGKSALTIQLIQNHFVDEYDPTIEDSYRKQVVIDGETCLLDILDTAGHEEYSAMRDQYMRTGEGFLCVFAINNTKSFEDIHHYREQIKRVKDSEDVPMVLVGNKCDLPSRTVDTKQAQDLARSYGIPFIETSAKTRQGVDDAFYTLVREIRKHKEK
Chain of KRAS Q61H (P62937 whole entry): as the sequence (P62937 whole entry) above
Chain of KRAS WT (P01116 1-169 isoform P01116-2 limits assumed): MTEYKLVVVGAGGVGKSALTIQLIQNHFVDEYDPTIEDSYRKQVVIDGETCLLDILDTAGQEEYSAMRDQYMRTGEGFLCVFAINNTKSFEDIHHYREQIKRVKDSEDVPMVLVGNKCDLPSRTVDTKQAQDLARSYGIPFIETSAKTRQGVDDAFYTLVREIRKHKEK
Chain of KRAS WT (P62937 whole entry): as the sequence (P62937 whole entry) above
Chain of KRAS G12S (P01116 1-169 isoform P01116-2 G12S limits assumed): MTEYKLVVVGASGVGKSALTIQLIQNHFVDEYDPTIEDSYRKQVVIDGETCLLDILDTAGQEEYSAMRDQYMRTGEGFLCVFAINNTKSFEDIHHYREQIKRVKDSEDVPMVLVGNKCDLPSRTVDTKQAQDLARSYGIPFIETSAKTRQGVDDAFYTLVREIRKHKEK
Chain of KRAS G12S (P62937 whole entry): as the sequence (P62937 whole entry) above
Chain of NRAS G12C (P01111 whole entry G12C): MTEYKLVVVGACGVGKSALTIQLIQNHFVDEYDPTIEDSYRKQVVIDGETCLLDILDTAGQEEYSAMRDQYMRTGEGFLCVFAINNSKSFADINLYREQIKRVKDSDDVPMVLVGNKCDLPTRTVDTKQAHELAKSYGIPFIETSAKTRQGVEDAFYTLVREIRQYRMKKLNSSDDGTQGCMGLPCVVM
Chain of NRAS G12C (P62937 whole entry): as the sequence (P62937 whole entry) above
Chain of KRAS G12V (P01116 1-169 isoform P01116-2 G12V limits assumed): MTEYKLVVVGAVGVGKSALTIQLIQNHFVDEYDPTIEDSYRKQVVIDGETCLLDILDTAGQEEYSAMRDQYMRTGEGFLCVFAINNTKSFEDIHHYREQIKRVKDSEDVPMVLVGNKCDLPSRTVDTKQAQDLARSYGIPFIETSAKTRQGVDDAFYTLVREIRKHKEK
Chain of KRAS G12V (P62937 whole entry): as the sequence (P62937 whole entry) above
Chain of NRAS WT (P01111 whole entry): as the sequence (P01111 whole entry G12C) above, with C12G counted along it
Chain of NRAS WT (P62937 whole entry): as the sequence (P62937 whole entry) above
Chain of KRAS G13C (P01116 1-169 isoform P01116-2 G13C): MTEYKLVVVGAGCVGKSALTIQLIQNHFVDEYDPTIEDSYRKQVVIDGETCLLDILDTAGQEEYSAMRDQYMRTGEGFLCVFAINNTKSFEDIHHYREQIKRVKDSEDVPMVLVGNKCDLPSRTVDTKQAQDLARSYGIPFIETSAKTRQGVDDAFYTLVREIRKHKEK
Chain of KRAS G13C (P62937 whole entry): as the sequence (P62937 whole entry) above
Chain of NRAS Q61R (P01111 whole entry Q61R): as the sequence (P01111 whole entry G12C) above, with C12G, Q61R counted along it
Chain of NRAS Q61R (P62937 whole entry): as the sequence (P62937 whole entry) above
Chain of KRAS G12C (P01116 1-169 isoform P01116-2 G12C): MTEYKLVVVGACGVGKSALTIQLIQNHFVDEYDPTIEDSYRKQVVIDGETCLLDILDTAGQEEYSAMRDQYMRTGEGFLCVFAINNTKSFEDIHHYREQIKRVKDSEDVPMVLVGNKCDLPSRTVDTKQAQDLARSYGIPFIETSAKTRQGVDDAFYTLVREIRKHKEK
Chain of KRAS G12C (P62937 whole entry): as the sequence (P62937 whole entry) above
Chain of NRAS Q61K (P01111 whole entry Q61K): as the sequence (P01111 whole entry G12C) above, with C12G, Q61K counted along it
Chain of NRAS Q61K (P62937 whole entry): as the sequence (P62937 whole entry) above
Chain of KRAS G13D (P01116 1-169 isoform P01116-2 G13D limits assumed): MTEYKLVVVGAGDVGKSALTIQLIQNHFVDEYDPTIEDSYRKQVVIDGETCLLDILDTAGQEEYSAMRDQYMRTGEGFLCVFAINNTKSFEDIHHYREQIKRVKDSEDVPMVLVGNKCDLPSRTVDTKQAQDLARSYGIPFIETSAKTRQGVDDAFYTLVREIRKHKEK
Chain of KRAS G13D (P62937 whole entry): as the sequence (P62937 whole entry) above

Compound | IC50 (KRAS G12V) [nM] | IC50 (NRAS G12C) [nM] | IC50 (KRAS G12S) [nM] | IC50 (KRAS G13C) [nM] | IC50 (KRAS WT) [nM] | IC50 (KRAS G12C) [nM] | IC50 (KRAS G13D) [nM] | IC50 (KRAS G12D) [nM] | IC50 (KRAS Q61H) [nM] | IC50 (NRAS WT) [nM] | IC50 (NRAS Q61K) [nM] | IC50 (NRAS Q61R) [nM] | IC50 (Capan-1 (K-Ras G12V)) [nM] | IC50 (NCI-H358 (K-Ras G12C)) [nM]
CCn1c(-c2cccnc2[C@H](C)OC)c2c3cc(ccc31)-c1csc(n1)C[C@H](NC(=O)[C@H](C(C)C)N(C)C(=O)N(C)C1(COC)COC1)C(=O)N1CCC[C@H](N1)C(=O)OCC(C)(C)C2 [Example A455] | 1000 to 10000 | 100 to 1000 | 100 to 1000 | 1000 to 10000 | 100 to 1000 | 100 to 1000 | 1000 to 10000 | 1000 to 10000 | 100 to 1000 | 100 to 1000 | 100 to 1000 | 100 to 1000 | 100 to 1000 | 100 to 1000
CCn1c(-c2cccnc2[C@H](C)OC)c2c3cc(ccc31)-c1csc(n1)C[C@H](NC(=O)[C@H](C(C)C)N(C)C(=O)N1CC([C@@H](C)NC)C1)C(=O)N1CCC[C@H](N1)C(=O)OCC(C)(C)C2 (atropisomer, axis not shown) [Example A488] | 100 to 1000 | 10 to 100 | 100 to 1000 | 100 to 1000 | 100 to 1000 | 10 to 100 | 100 to 1000 | 100 to 1000 | 10 to 100 | 100 to 1000 | 10 to 100 | 100 to 1000 | 100 to 1000 | 10 to 100
CCn1c(-c2cccnc2[C@H](C)OC)c2c3cc(ccc31)-c1csc(n1)C[C@H](NC(=O)[C@H](C(C)C)N(C)C(=O)N1C[C@H](C)N(C)C[C@@H]1C)C(=O)N1CCC[C@H](N1)C(=O)OCC(C)(C)C2 [Example A283] | 1000 to 10000 | 100 to 1000 | 1000 to 10000 | 1000 to 10000 | 100 to 1000 | 100 to 1000 | 1000 to 10000 | 1000 to 10000 | 100 to 1000 | 100 to 1000 | 100 to 1000 | 100 to 1000 | 100 to 1000 | 100 to 1000
CCn1c(-c2cccnc2[C@H](C)OC)c2c3cc(ccc31)-c1csc(n1)C[C@H](NC(=O)[C@H](C(C)C)N(C)C(=O)N1CCO[C@@H](C)C1)C(=O)N1CCC[C@H](N1)C(=O)OCC(C)(C)C2 (atropisomer, axis not shown) [Example A309] | 100 to 1000 | 10 to 100 | 100 to 1000 | 100 to 1000 | 100 to 1000 | 10 to 100 | 100 to 1000 | 100 to 1000 | 10 to 100 | 10 to 100 | 10 to 100 | 10 to 100 | 10 to 100 | < 10
CCn1c(-c2cccnc2[C@H](C)OC)c2c3cc(ccc31)-c1csc(n1)C[C@H](NC(=O)[C@H](C(C)C)N(C)C(=O)N1CC[C@H](N(C)C)C1)C(=O)N1CCC[C@H](N1)C(=O)OCC(C)(C)C2 [Example A603] | 100 to 1000 | 100 to 1000 | 100 to 1000 | 100 to 1000 | 100 to 1000 | 100 to 1000 | 100 to 1000 | 100 to 1000 | 100 to 1000 | 100 to 1000 | 100 to 1000 | 100 to 1000 | 10 to 100 | 10 to 100
CCn1c(-c2cccnc2[C@H](C)OC)c2c3cc(ccc31)-c1cc(O)cc(c1)C[C@H](NC(=O)[C@H](C(C)C)N(C)C(=O)OC1CC1)C(=O)N1CCC[C@H](N1)C(=O)OCC(C)(C)C2 [Example A174] | 100 to 1000 | 100 to 1000 | 100 to 1000 | 100 to 1000 | 100 to 1000 | 100 to 1000 | 100 to 1000 | 100 to 1000 | 10 to 100 | 100 to 1000 | 100 to 1000 | 100 to 1000 | 100 to 1000 | 100 to 1000
